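Interpolation was linear, between the two tested concentrations surrounding the appropriate level; five concentrations were tested over 48 hours in 96-well plates. TGI marks complete inhibition of growth.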
What was measured:
Experiment in all cases: growth of human tumour cells (NCI), 48 h
[1] = tested on: 786-0 renal
[2] = tested on: A498 renal
[3] = tested on: A549 NSCLC
[4] = tested on: ACHN renal
[5] = tested on: BT-549 breast
[6] = tested on: CAKI-1 renal
[7] = tested on: CCRF-CEM leukemia
[8] = tested on: COLO 205 colon
[9] = tested on: DU-145 prostate
[10] = tested on: EKVX NSCLC
[11] = tested on: HCC-2998 colon
[12] = tested on: HCT-116 colon
[13] = tested on: HCT-15 colon
[14] = tested on: HL-60(TB) leukemia
[15] = tested on: HOP-62 NSCLC
[16] = tested on: HOP-92 NSCLC
[17] = tested on: HS 578T breast
[18] = tested on: HT29 colon
[19] = tested on: IGROV1 ovarian
[20] = tested on: K-562 leukemia
[21] = tested on: KM12 colon
[22] = tested on: LOX IMVI melanoma
[23] = tested on: M14 melanoma
[24] = tested on: MALME-3M melanoma
[25] = tested on: MCF7 breast
[26] = tested on: MDA-MB-231 breast
[27] = tested on: MDA-MB-435
[28] = tested on: MDA-N
[29] = tested on: MOLT-4 leukemia
[30] = tested on: NCI-H226 lung
[31] = tested on: NCI-H23 lung
[32] = tested on: NCI-H460 lung
[33] = tested on: NCI-H522 lung
[34] = tested on: NCI/ADR-RES ovarian
[35] = tested on: OVCAR-3 ovarian
[36] = tested on: OVCAR-4 ovarian
[37] = tested on: OVCAR-5 ovarian
[38] = tested on: OVCAR-8 ovarian
[39] = tested on: PC-3 prostate
[40] = tested on: RPMI-8226 leukemia
[41] = tested on: RXF 393 renal
[42] = tested on: SF-268 CNS
[43] = tested on: SF-295 CNS
[44] = tested on: SF-539 CNS
[45] = tested on: SK-MEL-2 melanoma
[46] = tested on: SK-MEL-28 melanoma
[47] = tested on: SK-MEL-5 melanoma
[48] = tested on: SK-OV-3 ovarian
[49] = tested on: SN12C renal
[50] = tested on: SNB-19 CNS
[51] = tested on: SNB-75 CNS
[52] = tested on: SR leukemia
[53] = tested on: SW-620 colon
[54] = tested on: T-47D breast
[55] = tested on: TK-10 renal
[56] = tested on: U251 CNS
[57] = tested on: UACC-257 melanoma
[58] = tested on: UACC-62 melanoma
[59] = tested on: UO-31 renal

Measured: TGI

O=C(O)C(Cl)(c1ccccc1)c1ccccc1
> 100 µM: [1] | [2] | [3] | [4] | [5] | [6] | [7] | [8] | [9] | [10] | [11] | [12] | [13] | [14] | [15] | [16] | [17] | [18] | [19] | [20] | [21] | [22] | [23] | [24] | [25] | [26] | [27] | [28] | [29] | [30] | [31] | [32] | [33] | [34] | [35] | [36] | [37] | [38] | [39] | [40] | [41] | [42] | [43] | [44] | [45] | [46] | [47] | [48] | [49] | [50] | [51] | [52] | [53] | [54] | [55] | [56] | [57] | [58] | [59]

CC1C2(C)OC(=N)C(C#N)(C(c3cccc([N+](=O)[O-])c3)O2)C1(C#N)C#N (stereo unspecified)
47.5 µM: [46]
43.9 µM: [41]
33.1 µM: [16]
45.2 µM: [1]
38.7 µM: [23]
40.4 µM: [12]
52.2 µM: [7]
36 µM: [22]
49.6 µM: [57]
73 µM: [24]
35.9 µM: [54]
27.5 µM: [8]
42.7 µM: [58]
24.4 µM: [6]
20.9 µM: [47]
31.3 µM: [53]
98.3 µM: [10]
28.1 µM: [49]
50.2 µM: [25]
32 µM: [26]
74.6 µM: [18]
32.4 µM: [28]
39 µM: [14]
61.7 µM: [45]
> 100 µM: [2] | [3] | [4] | [5] | [9] | [17] | [19] | [20] | [21] | [29] | [30] | [31] | [34] | [37] | [38] | [39] | [42] | [43] | [48] | [50] | [51] | [55] | [59]
53.8 µM: [56]
34.2 µM: [44]
29.7 µM: [32]

O=Cc1cccc2c1Oc1c(cccc1C(=O)O)S2
63.3 µM: [40]
55.6 µM: [8]
68.1 µM: [29]
44.3 µM: [21]
> 100 µM: [1] | [2] | [3] | [4] | [5] | [6] | [9] | [10] | [11] | [12] | [13] | [15] | [16] | [17] | [18] | [19] | [22] | [23] | [24] | [25] | [26] | [27] | [28] | [30] | [31] | [32] | [33] | [34] | [35] | [36] | [37] | [38] | [39] | [42] | [43] | [44] | [45] | [46] | [47] | [48] | [49] | [50] | [51] | [52] | [53] | [54] | [55] | [56] | [57] | [58] | [59]

CN(c1ccccc1Cl)S(=O)(=O)c1ccc([N+](=O)[O-])cc1
> 100 µM: [1] | [3] | [4] | [5] | [6] | [7] | [8] | [9] | [10] | [11] | [12] | [13] | [14] | [15] | [17] | [18] | [19] | [20] | [21] | [22] | [23] | [24] | [25] | [26] | [27] | [28] | [29] | [30] | [31] | [32] | [33] | [34] | [35] | [36] | [37] | [38] | [39] | [40] | [41] | [42] | [43] | [44] | [45] | [46] | [47] | [48] | [49] | [50] | [51] | [52] | [53] | [54] | [55] | [56] | [57] | [58] | [59]
